In ChEMBL document CHEMBL5316344, “Homologation of the Alkyl Side Chain of Antimitotic Phenyl 4-(2-Oxo-3-alkylimidazolidin-1-yl)benzenesulfonate Prodrugs Selectively Targeting CYP1A1-Expressing Breast Cancers Improves Their Stability in Rodent Liver Microsomes” (J Med Chem, 2023) one finds Drug uptake, Ratio and Drug excretion data, which are given here for two compounds.

Data set [1] is described as follows: Drug accumulation in tumor of nude mouse xenografted with human MCF7 cells intravenously at 231 kBq, iv administered as C14-lableled compound and assessed as radioactivity and measured at 1 hr post dose by digital autoradiographic analysis. Format: ADME, organism-based, Neoplasm. As to conditions: in vivo. A general note: A xenograft is tissue or cells of one species grown in another, often human tumour cells in immunodeficient mice; call rule not given here.

Data set [2] can be described thus: Drug accumulation in tumor of nude mouse xenografted with human MCF7 cells at 231 kBq, iv administered as C14-lableled compound and assessed as radioactivity and measured at 3 hrs post dose by digital autoradiographic analysis. Format: ADME, organism-based, Neoplasm. As to conditions: in vivo.
Data set [3] is described as follows: Ratio of drug level in tumor to muscle in nude mouse xenografted with human MCF7 cells at 231 kBq, iv administered as C14-lableled compound and assessed as radioactivity and measured at 1 hr post dose. Particulars: in vivo. Format: ADME, organism-based.
A short description of data set [4]: Ratio of drug level in tumor to muscle in nude mouse xenografted with human MCF7 cells at 231 kBq, iv administered as C14-lableled compound and assessed as radioactivity and measured at 3 hrs post dose. The data set is classed as ADME, organism-based. As to conditions: in vivo.
The nature of data set [5]: Biodistribution in muscle of OF1 mouse at 231 kBq, iv administered as C14-lableled compound and assessed as radioactivity and measured at 1 hr post dose by digital autoradiographic analysis. The data set is classed as ADME, organism-based, Muscle tissue. As to conditions: in vivo.
Data set [6] in a line: Biodistribution in brain of OF1 mouse at 231 kBq, iv administered as C14-lableled compound and assessed as radioactivity and measured at 1 hr post dose by digital autoradiographic analysis. The data set is classed as ADME, organism-based. Particulars: in vivo.
Data set [7] can be described thus: Biodistribution in heart of OF1 mouse at 231 kBq, iv administered as C14-lableled compound and assessed as radioactivity and measured at 1 hr post dose by digital autoradiographic analysis. Particulars: in vivo. The data set is classed as ADME, organism-based.
A short description of data set [8]: Biodistribution in lungs of OF1 mouse at 231 kBq, iv administered as C14-lableled compound and assessed as radioactivity and measured at 1 hr post dose by digital autoradiographic analysis. Format: ADME, organism-based, Lung. Particulars: in vivo.
The nature of data set [9]: Biodistribution in liver of OF1 mouse at 231 kBq, iv administered as C14-lableled compound and assessed as radioactivity and measured at 1 hr post dose by digital autoradiographic analysis. Format: ADME, organism-based. Particulars: in vivo.
Data set [10] can be described thus: Biodistribution in stomach of OF1 mouse at 231 kBq, iv administered as C14-lableled compound and assessed as radioactivity and measured at 1 hr post dose by digital autoradiographic analysis. The data set is classed as ADME, organism-based. As to conditions: in vivo.
Data set [11] in a line: Biodistribution in kidney of OF1 mouse at 231 kBq, iv administered as C14-lableled compound and assessed as radioactivity and measured at 1 hr post dose by digital autoradiographic analysis. The data set is classed as ADME, organism-based. As to conditions: in vivo.
Data set [12] in a line: Biodistribution in spleen of OF1 mouse at 231 kBq, iv administered as C14-lableled compound and assessed as radioactivity and measured at 1 hr post dose by digital autoradiographic analysis. Format: ADME, organism-based. Particulars: in vivo.
A short description of data set [13]: Biodistribution in muscle of nude mouse xenografted with human MCF7 cells at 231 kBq, iv administered as C14-lableled compound and assessed as radioactivity and measured at 3 hrs post dose by digital autoradiographic analysis. The data set is classed as ADME, organism-based, Muscle tissue. As to conditions: in vivo.
Data set [14] can be described thus: Biodistribution in brain of nude mouse xenografted with human MCF7 cells at 231 kBq, iv administered as C14-lableled compound and assessed as radioactivity and measured at 3 hrs post dose by digital autoradiographic analysis. Format: ADME, organism-based. As to conditions: in vivo.
Data set [15] can be described thus: Biodistribution in heart of nude mouse xenografted with human MCF7 cells at 231 kBq, iv administered as C14-lableled compound and assessed as radioactivity and measured at 3 hrs post dose by digital autoradiographic analysis. Particulars: in vivo. The data set is classed as ADME, organism-based.
Data set [16] is described as follows: Biodistribution in lungs of nude mouse xenografted with human MCF7 cells at 231 kBq, iv administered as C14-lableled compound and assessed as radioactivity and measured at 3 hrs post dose by digital autoradiographic analysis. The data set is classed as ADME, organism-based, Lung. As to conditions: in vivo.
Data set [17] can be described thus: Biodistribution in stomach of nude mouse xenografted with human MCF7 cells at 231 kBq, iv administered as C14-lableled compound and assessed as radioactivity and measured at 3 hrs post dose by digital autoradiographic analysis. The data set is classed as ADME, organism-based. As to conditions: in vivo.
A short description of data set [18]: Biodistribution in kidney of nude mouse xenografted with human MCF7 cells at 231 kBq, iv administered as C14-lableled compound and assessed as radioactivity and measured at 3 hrs post dose by digital autoradiographic analysis. The data set is classed as ADME, organism-based. Particulars: in vivo.
A short description of data set [19]: Biodistribution in spleen of nude mouse xenografted with human MCF7 cells at 231 kBq, iv administered as C14-lableled compound and assessed as radioactivity and measured at 3 hrs post dose by digital autoradiographic analysis. The data set is classed as ADME, organism-based. Particulars: in vivo.
Data set [20] can be described thus: Drug excretion in OF1 mouse feces at 231 kBq, iv administered as C14-lableled compound and assessed as radioactivity and measured at 3 to 6 hrs post dose. Particulars: in vivo, time 3-6 hrs. The data set is classed as ADME, organism-based.
A short description of data set [21]: Drug excretion in OF1 mouse urine at 231 kBq, iv administered as C14-lableled compound and assessed as radioactivity and measured at 3 to 6 hrs post dose. Format: ADME, organism-based. Particulars: in vivo, time 3-6 hrs.
A short description of data set [22]: Biodistribution in muscle of OF1 mouse at 292 kBq, iv administered as C14-lableled compound and assessed as radioactivity and measured at 1 hr post dose by digital autoradiographic analysis. Format: ADME, organism-based, Muscle tissue. As to conditions: in vivo.
Data set [23] can be described thus: Biodistribution in brain of OF1 mouse at 292 kBq, iv administered as C14-lableled compound and assessed as radioactivity and measured at 1 hr post dose by digital autoradiographic analysis. The data set is classed as ADME, organism-based. Particulars: in vivo.
The nature of data set [24]: Biodistribution in heart of OF1 mouse at 292 kBq, iv administered as C14-lableled compound and assessed as radioactivity and measured at 1 hr post dose by digital autoradiographic analysis. Format: ADME, organism-based. Particulars: in vivo.
Data set [25] in a line: Biodistribution in lungs of OF1 mouse at 292 kBq, iv administered as C14-lableled compound and assessed as radioactivity and measured at 1 hr post dose by digital autoradiographic analysis. Format: ADME, organism-based, Lung. Particulars: in vivo.
Data set [26] can be described thus: Biodistribution in liver of OF1 mouse at 292 kBq, iv administered as C14-lableled compound and assessed as radioactivity and measured at 1 hr post dose by digital autoradiographic analysis. The data set is classed as ADME, organism-based. Particulars: in vivo.
Data set [27] is described as follows: Biodistribution in stomach of OF1 mouse at 292 kBq, iv administered as C14-lableled compound and assessed as radioactivity and measured at 1 hr post dose by digital autoradiographic analysis. Format: ADME, organism-based. Particulars: in vivo.
Data set [28] can be described thus: Biodistribution in kidney of OF1 mouse at 292 kBq, iv administered as C14-lableled compound and assessed as radioactivity and measured at 1 hr post dose by digital autoradiographic analysis. The data set is classed as ADME, organism-based. As to conditions: in vivo.
Data set [29] in a line: Biodistribution in spleen of OF1 mouse at 292 kBq, iv administered as C14-lableled compound and assessed as radioactivity and measured at 1 hr post dose by digital autoradiographic analysis. The data set is classed as ADME, organism-based. As to conditions: in vivo.
Data set [30] can be described thus: Biodistribution in muscle of nude mouse xenografted with human MCF7 cells at 292 kBq, iv administered as C14-lableled compound and assessed as radioactivity and measured at 6 hrs post dose by digital autoradiographic analysis. The data set is classed as ADME, organism-based, Muscle tissue. As to conditions: in vivo.
A short description of data set [31]: Biodistribution in brain of nude mouse xenografted with human MCF7 cells at 292 kBq, iv administered as C14-lableled compound and assessed as radioactivity and measured at 6 hrs post dose by digital autoradiographic analysis. Format: ADME, organism-based. As to conditions: in vivo.
Data set [32] can be described thus: Biodistribution in heart of nude mouse xenografted with human MCF7 cells at 292 kBq, iv administered as C14-lableled compound and assessed as radioactivity and measured at 6 hrs post dose by digital autoradiographic analysis. As to conditions: in vivo. The data set is classed as ADME, organism-based.
A short description of data set [33]: Biodistribution in lung of nude mouse xenografted with human MCF7 cells at 292 kBq, iv administered as C14-lableled compound and assessed as radioactivity and measured at 6 hrs post dose by digital autoradiographic analysis. The data set is classed as ADME, organism-based. As to conditions: in vivo.
A short description of data set [34]: Biodistribution in stomach of nude mouse xenografted with human MCF7 cells at 292 kBq, iv administered as C14-lableled compound and assessed as radioactivity and measured at 6 hrs post dose by digital autoradiographic analysis. The data set is classed as ADME, organism-based. Particulars: in vivo.
Data set [35] can be described thus: Biodistribution in kidney of nude mouse xenografted with human MCF7 cells at 292 kBq, iv administered as C14-lableled compound and assessed as radioactivity and measured at 6 hrs post dose by digital autoradiographic analysis. Format: ADME, organism-based. As to conditions: in vivo.
Data set [36] can be described thus: Biodistribution in spleen of nude mouse xenografted with human MCF7 cells at 292 kBq, iv administered as C14-lableled compound and assessed as radioactivity and measured at 6 hrs post dose by digital autoradiographic analysis. The data set is classed as ADME, organism-based. As to conditions: in vivo.
Data set [37] can be described thus: Drug excretion in OF1 mouse feces at 292 kBq, iv administered as C14-lableled compound and assessed as radioactivity and measured at 3 to 6 hrs post dose. Format: ADME, organism-based. As to conditions: in vivo, time 3-6 hrs.
A short description of data set [38]: Drug excretion in OF1 mouse urine at 292 kBq, iv administered as C14-lableled compound and assessed as radioactivity and measured at 3 to 6 hrs post dose. Format: ADME, organism-based. As to conditions: in vivo, time 3-6 hrs.

Consider `CCCCN1CCN(c2ccc(S(=O)(=O)Oc3cc(OC)c(OC)c(OC)c3)cc2)[14C]1=O`, for which the Drug uptake in data set [1] is on record as 1.6%; in data set [2], 0.8%; in data set [5] it was “Active”; in data set [6] it was “Active”; in data set [7] it was “Active”; in data set [8], “Active”. The Drug uptake result in data set [9] is listed as “Active”; in [10] it was “Active”; in data set [11] it was “Active”; in [12], “Active”; in data set [13], “Not Active”; in [14], “Not Active”. The Drug uptake result in data set [15], in data set [16], in data set [17], in data set [18] and in data set [19] was “Not Active” in each case. The Ratio is recorded as 1.1 in [3] and 2.5 in data set [4]. Besides, the Drug excretion entry in [20] and in data set [21] was “Active” each time.

As for `COc1cc(OS(=O)(=O)c2ccc(N3CCN[14C]3=O)cc2)cc(OC)c1OC`, the Drug uptake result in data set [22], in [23], in [24], in data set [25], in [26] and in [27] was “Active” each time. For the same compound, the Drug uptake entry in [28] was “Active”; in [29] it was “Active”; in data set [30], “Not Active”; in data set [31] it was “Not Active”; in data set [32], “Not Active”; in [33] it was “Not Active”. Moreover, the Drug uptake result in [34], in data set [35] and in [36] was “Not Active” throughout. Also, the Drug excretion entry in data set [37] and in data set [38] was “Active” each time.
